Assay results reported in patent US8507546B2, “Use of inhibitors of scavenger receptor class proteins for the treatment of infectious diseases” (Instituto de Medicina Molecular, Faculdade de Medicina da …, priority 2006, dated 2013).

Assays:
P. berghei ANKA = experiment: Liver infection in mice, parasite 18S RNA by Real-Time PCR; type: in vivo, Plasmodium berghei; conditions: C57Bl/6 mice
Protocol: Ezeterol tablets were used to prepare a 0.3 mg/ml solution of Ezetimibe in water. Experimental C5781/6 mice were treated by oral gavage with 200 μl of Ezetimibe solution (3 mg/kg) 2 hours prior to infection with sporozoites. To control mice, 200 μl of water were administered by oral gavage. Infection with Plasmodium berghei was performed by i.v. injection of 30 000 sporozoites (see FIG. 5). For BLT-1 treatment of C57Bl/6 mice (male, 6-8 weeks old), intra-peritoneal injections of 50 mg/kg of BLT-1 in DMSO were carried out prior to infection. Control mice were treated with DMSO only. Two hours later, mice were infected by intravenous injection with 3×10^4 P. berghei sporozoites (see FIG. 12).
Mice were sacrificed 40-42 hours after infection and their livers collected. Livers were placed in 4 ml cold lysis buffer (4 M guanidine thio-cyanate, 25 mM sodium citrate, pH 7.0 and 0.5% sarcosyl) and homogenised on ice with a tissue tearer. 1 ml aliquots of liver homogenate were kept at −80° C. until RNA extraction. Total RNA was extracted from 50 μl of liver homogenate with Qiagen's RNeasy RNA extraction kit following the instructions of the manufacturer. […]
P. berghei ANKA load and ScarB1 expression in the liver was quantified by Real-Time PCR using the SYBR Green Mix (Applied Biosystems) and primers designed for the 18S RNA of the parasite and primers for ScarB1. […]

P. berghei = experiment: EEF development in mouse primary hepatocytes infected with P. berghei sporozoites; type: cell-based, Plasmodium berghei; conditions: 10 μM; full 24 hours of infection, first 2 hours only, or 2 hours after infection until 24 hours
Protocol: C57B1/6 freshly isolated mouse primary hepatocytes (1×10^5 cells per well) were seeded in 700 μl of Williams E medium supplemented with 1× glutamax (Gibco/Invitrogen), 4% fetal calf serum (Gibco/Invitrogen) and 1% penicillin/streptomycin (Gibco/Invitrogen) in 24 well plates incubated at 37° C. 5% CO2. After two days cells were treated with 10 μM BLT-1 for different time points: for the full 24 hours of infection with P. berghei (5×10^5 sporozoites), only during the first 2 hours of infection, or for the time of 2 hours after infection until evaluation at 24 hours. (see FIG. 14)

Plasmodium berghei ANKA = experiment: Inhibition of EEF development in Huh-7 human hepatoma cells infected with sporozoites (immunofluorescence microscopy); type: cell-based; conditions: compound at 8 μM, 1.6 μM, 320 nM, 64 nM, 1 h before infection with 10,000 sporozoites per well
Description: To model this infection, the inventors have developed an assay monitoring infection and maturation of Plasmodium berghei ANKA, a mouse-pathogenic close relative of the human-pathogenic Plasmodium falciparum strain, in cultured human hepatoma cells. Huh human hepatoma cells, were cultivated in RPMI (Gibco/Invitrogen) medium containing 10% FBS, 1% non-essential amino acid solution (Gibco/Invitrogen), 1% penicillin/streptomycin solution (Gibco/Invitrogen), 1% glutamine (Gibco/Invitrogen) and 1% Hepes pH 8 (Gibco/Invitrogen). 4000-6000 cells per well were seeded in a volume of 100 μl/well. Sporozoites were obtained from Anopheles stephensi mosquitoes infected with P. berghei ANKA or P. yoelii. Salivary glands were dissected and collected in RPMI medium (GIBCO) on ice. Collected tissues were gently ground in the medium to release sporozoites. Tissue fragments were removed by centrifugation at 40×g for 3 min, and sporozoites were collected from the supernatant. Blt-1, Blt-2, and Blt-4 were purchased from ChemBridge Corporation (San Diego, USA). Ezetimibe (for chemical structure see FIG. 6 and structure (XXVI)) was derived from powdered Ezeterol tablets (Essex Pharma, UK). Each compound was dissolved in DMSO at a final concentration of 50 mM. 48 hours after seeding of 6000 Huh-7 cells per well, growth medium was replaced by fresh complete culture medium, containing the compounds in 4 different concentrations, generated by dilution series of the compound stock solutions in complete growth medium: 8 μM; 1.6 μM; 320 nM; 64 nM. […] Cells were imaged using a fully automated fluorescence microscope from MDC (Molecular Devices Corporation, CA, USA). […] Numerical readouts comprised of cell proliferation as measured by the number of nuclei per imaged field (Hoechst staining), cell confluency as measured by the percentage of the imaged field covered by cells (actin/Phalloidin staining), and number of EEFs per imaged field. […] Objects in a size range of 16-150 pixels were quantified. […]

P. yoelii = P. yoelii EEF development in Hepa 1-6 cells; type: cell-based, Plasmodium yoelii; conditions: 10 μM; full 24 hours of infection, first 2 hours only, or 2 hours after infection until 24 hours
Protocol: Hepa 1-6 cells were cultured in complete DMEM medium (Gibco/Invitrogen) supplemented with 10% fetal calf serum (Gibco/Invitrogen) and 1% penicillin/streptomycin (Gibco/Invitrogen) incubated at 37° C. and 5% CO2. Sporozoites were obtained from Anopheles stephensi mosquitoes infected with P. berghei ANKA or P. yoelii. Salivary glands were dissected and collected in RPMI medium (GIBCO) on ice. Collected tissues were gently ground in the medium to release sporozoites. Tissue fragments were removed by centrifugation at 40×g for 3 min, and sporozoites were collected from the supernatant. Cells were treated with 10 μM BLT-1 for different time points: for the full 24 hours of infection with P. yoelii (1×10^5 sporozoites), only during the first 2 hours of infection, or for the time of 2 hours after infection until evaluation of infection at 24 hours (see FIG. 15).

SMILES	infection rate for liver in mice (P. berghei ANKA; 50 mg/kg intra-peritoneal in DMSO two hours before i.v. infection with 3×10^4 P. berghei sporozoites)	EEF development in Mouse Primary Hepatocytes (P. berghei)	EEF (Exo-Erythrocytic Forms) development, EEF number (Plasmodium berghei ANKA)	P. Yoelii EEF development in Hepa 1-6 cells (P. yoelii)	infection rate for liver in mice (P. berghei ANKA; 3 mg/kg oral gavage 2 hours prior to i.v. infection with 30 000 sporozoites, livers 40-42 hours after infection)
CCCCCCC1CCC/C1=N\NC(N)=S (stereo not shown) [BLT-1]	reduces infection rate for liver	Inhibition of EEF development	Inhibition of EEF (Exo-Erythrocytic Forms) development	Inhibition of P. Yoelii EEF development	–
COc1ccccc1NC(=O)Nc1ccc2ccccc2c1 [BLT-4]	–	–	Inhibition of EEF development	–	–
O=C1[C@H](CC[C@H](O)c2ccc(F)cc2)[C@@H](c2ccc(O)cc2)N1c1ccc(F)cc1 [Ezetimibe]	–	–	Inhibition of EEF development	–	reduces infection rate for liver
